Columns and labels:
human Nav1.7 [1] = target: T1, human Nav1.7 (Homo sapiens, UniProt Q15858); test: Nav 1.7 IWB In Vitro Assay (IonWorks Barracuda); format: cell-based; conditions: HEK293 cells stably transfected with human Nav 1.7; IonWorks Barracuda population patch-clamp; cells clamped to −20 mV for 4 minutes with compound; 26th pulse; read-out: hNav1.7 IWB IC50
T1 construct: expressed in transfected cells; host or cells: HEK293
How it was run: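 Population patch clamp of HEK293 cells stably expressing human Nav 1.7: 26 pulses to −20 mV (150 ms, 5 Hz) from −110 mV, then 4 min at −20 mV with compound, 3 s recovery at −110 mV and the train repeated. % inhibition of 26th-pulse peak current vs no compound; IC50 from concentration-response curves.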

human Nav1.7 [2] = target: T1, human Nav1.7; test: Nav 1.7 In Vitro PatchXpress (PX) Assay; format: cell-based; conditions: HEK 293 cells stably transfected with human Nav1.7; PatchXpress whole cell voltage clamp; partially inactivated state (holding potential yielding 20 to 50% inactivation); read-out: hNav1.7 PX IC50
How it was run: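 Whole-cell voltage clamp on HEK 293 cells stably expressing human Nav1.7 (automated patch), holding potential giving 20–50% inactivation; 20 ms pulses to −10 mV at 0.1 Hz. Single compound concentration applied 3 min, peak current inhibition measured; IC50 fitted from 3–5 cells per concentration.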

T1 sequence (Q15858 whole entry): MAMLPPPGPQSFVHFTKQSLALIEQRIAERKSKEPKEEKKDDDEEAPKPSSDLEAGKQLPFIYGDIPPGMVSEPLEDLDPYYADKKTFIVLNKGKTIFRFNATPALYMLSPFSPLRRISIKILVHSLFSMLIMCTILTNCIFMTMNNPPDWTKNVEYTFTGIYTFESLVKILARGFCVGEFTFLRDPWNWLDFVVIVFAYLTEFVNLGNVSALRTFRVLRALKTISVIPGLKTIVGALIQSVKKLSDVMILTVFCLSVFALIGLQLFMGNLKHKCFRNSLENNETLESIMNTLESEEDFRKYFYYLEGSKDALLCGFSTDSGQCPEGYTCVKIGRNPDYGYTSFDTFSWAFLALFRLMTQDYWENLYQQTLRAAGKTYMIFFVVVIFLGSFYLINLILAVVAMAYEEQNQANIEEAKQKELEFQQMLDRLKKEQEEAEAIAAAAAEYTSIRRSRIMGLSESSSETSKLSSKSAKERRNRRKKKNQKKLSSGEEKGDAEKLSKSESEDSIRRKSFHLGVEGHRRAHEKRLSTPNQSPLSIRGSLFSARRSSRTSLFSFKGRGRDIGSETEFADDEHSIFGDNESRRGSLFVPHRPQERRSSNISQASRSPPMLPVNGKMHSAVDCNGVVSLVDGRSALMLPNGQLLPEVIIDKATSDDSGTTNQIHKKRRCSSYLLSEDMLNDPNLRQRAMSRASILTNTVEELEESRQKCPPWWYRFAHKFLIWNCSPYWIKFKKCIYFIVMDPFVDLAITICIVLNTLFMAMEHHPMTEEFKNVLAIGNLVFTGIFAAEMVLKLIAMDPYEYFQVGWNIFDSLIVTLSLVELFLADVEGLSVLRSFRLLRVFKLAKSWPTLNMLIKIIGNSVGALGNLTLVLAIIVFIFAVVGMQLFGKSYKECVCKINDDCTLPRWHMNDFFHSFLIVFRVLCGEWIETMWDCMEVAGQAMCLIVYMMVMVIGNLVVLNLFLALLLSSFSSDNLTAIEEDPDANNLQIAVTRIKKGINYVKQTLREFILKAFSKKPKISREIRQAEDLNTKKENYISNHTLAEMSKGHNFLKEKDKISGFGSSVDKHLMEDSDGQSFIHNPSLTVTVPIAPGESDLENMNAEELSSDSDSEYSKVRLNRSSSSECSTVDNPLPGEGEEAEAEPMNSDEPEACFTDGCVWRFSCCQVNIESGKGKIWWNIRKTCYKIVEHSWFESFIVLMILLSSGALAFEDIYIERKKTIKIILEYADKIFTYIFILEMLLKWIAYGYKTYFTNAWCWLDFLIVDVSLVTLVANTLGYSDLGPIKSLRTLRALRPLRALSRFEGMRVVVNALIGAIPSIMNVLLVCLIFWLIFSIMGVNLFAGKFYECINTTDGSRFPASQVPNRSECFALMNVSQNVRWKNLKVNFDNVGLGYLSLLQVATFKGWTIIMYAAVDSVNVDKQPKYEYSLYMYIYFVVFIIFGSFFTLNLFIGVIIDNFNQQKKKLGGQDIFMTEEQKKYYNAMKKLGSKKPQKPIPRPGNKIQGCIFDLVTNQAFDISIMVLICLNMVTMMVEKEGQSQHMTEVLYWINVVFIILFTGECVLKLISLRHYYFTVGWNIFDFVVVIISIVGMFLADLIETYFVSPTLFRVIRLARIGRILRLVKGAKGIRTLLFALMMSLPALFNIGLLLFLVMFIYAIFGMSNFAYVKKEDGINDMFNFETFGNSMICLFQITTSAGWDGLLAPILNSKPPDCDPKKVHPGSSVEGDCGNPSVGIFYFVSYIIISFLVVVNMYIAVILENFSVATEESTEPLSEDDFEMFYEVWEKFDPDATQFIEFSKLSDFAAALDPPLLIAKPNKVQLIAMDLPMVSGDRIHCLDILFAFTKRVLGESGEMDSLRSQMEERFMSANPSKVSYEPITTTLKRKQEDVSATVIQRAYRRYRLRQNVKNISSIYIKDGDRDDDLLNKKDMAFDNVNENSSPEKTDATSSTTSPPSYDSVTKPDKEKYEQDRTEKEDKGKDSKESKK

SMILES | IC50 (human Nav1.7 [1]) | IC50 (human Nav1.7 [2])
COc1cc(-c2cccc(C(F)(F)F)c2)c(Cl)cc1-n1c2c(ccc1=O)CN(S(=O)(=O)Nc1cccnn1)CC2 (single isomer, unassigned) [Example 91-M, M-1-(2-chloro-5-methoxy-3′-(trifluoromethyl)-[1,1′-biphenyl]-4-yl)-2-oxo-N-(pyridazin-3-yl)-1,2,7,8-tetrahydro-1,6-naphthyridine-6(5H)-sulfonamide] | 154 nM | 681 nM
COc1cc(-c2ccc(F)c(C)c2)c(Cl)cc1-n1c2c(ccc1=O)CN(S(=O)(=O)Nc1cccnn1)CC2 (single isomer, unassigned) [Example 92-M, M-1-(2-chloro-4′-fluoro-5-methoxy-3′-methyl-[1,1′-biphenyl]-4-yl)-2-oxo-N-(pyridazin-3-yl)-1,2,7,8-tetrahydro-1,6-naphthyridine-6(5H)-sulfonamide] | 282 nM | 3010 nM
COc1cc(-c2ccc(F)c(C)c2)c(Cl)cc1-n1c2c(ccc1=O)CN(S(=O)(=O)Nc1cccnn1)CC2 (single isomer, unassigned) [Example 92-P, P-1-(2-chloro-4′-fluoro-5-methoxy-3′-methyl-[1,1′-biphenyl]-4-yl)-2-oxo-N-(pyridazin-3-yl)-1,2,7,8-tetrahydro-1,6-naphthyridine-6(5H)-sulfonamide] | 5.9 nM | 41.4 nM
COc1cc(-c2ccc(F)c(C)c2)c(C)cc1-n1c2c(ccc1=O)CN(S(=O)(=O)Nc1cccnn1)CC2 (single isomer, unassigned) [Example 93-M, M-1-(4′-fluoro-5-methoxy-2,3′-dimethyl-[1,1′-biphenyl]-4-yl)-2-oxo-N-(pyridazin-3-yl)-1,2,7,8-tetrahydro-1,6-naphthyridine-6(5H)-sulfonamide] | 270 nM | 1800 nM
COc1cc(-c2ccc(F)c(C)c2)c(C)cc1-n1c2c(ccc1=O)CN(S(=O)(=O)Nc1cccnn1)CC2 (single isomer, unassigned) [Example 93-P, P-1-(4′-fluoro-5-methoxy-2,3′-dimethyl-[1,1′-biphenyl]-4-yl)-2-oxo-N-(pyridazin-3-yl)-1,2,7,8-tetrahydro-1,6-naphthyridine-6(5H)-sulfonamide] | 21.8 nM | 116 nM
COc1cc(-c2cc(F)cc(F)c2)c(F)cc1-n1c2c(ccc1=O)[C@@H](C)N(S(=O)(=O)Nc1ccon1)CC2 [Example 3-A-P, P-(5R)-N-3-isoxazolyl-5-methyl-2-oxo-1-(2,3′,5′-trifluoro-5-methoxy-4-biphenylyl)-1,5,7,8-tetrahydro-1,6-naphthyridine-6(2H)-sulfonamide] | 1200 nM | > 1000 nM
COc1cc(-c2cc(F)cc(F)c2)c(F)cc1-n1c2c(ccc1=O)[C@H](C)N(S(=O)(=O)Nc1ccon1)CC2 [Example 3-B-M, M-(5S)-N-3-isoxazolyl-5-methyl-2-oxo-1-(2,3′,5′-trifluoro-5-methoxy-4-biphenylyl)-1,5,7,8-tetrahydro-1,6-naphthyridine-6(2H)-sulfonamide] | > 30000 nM | > 1000 nM
COc1cc(-c2cc(F)cc(F)c2)c(F)cc1-n1c2c(ccc1=O)CN(S(=O)(=O)Nc1ccon1)[C@H](C)C2 [Example 3-D-M, M-(7R)-N-3-isoxazolyl-7-methyl-2-oxo-1-(2,3′,5′-trifluoro-5-methoxy-4-biphenylyl)-1,5,7,8-tetrahydro-1,6-naphthyridine-6(2H)-sulfonamide] | > 7500 nM | > 1000 nM
COc1cc(-c2cccc(C3CC3)c2)c(F)cc1-n1c2c(ccc1=O)CN(S(=O)(=O)Nc1cccnn1)CC2 [Example 42, P-1-(3′-cyclopropyl-2-fluoro-5-methoxy-4-biphenylyl)-2-oxo-N-3-pyridazinyl-1,5,7,8-tetrahydro-1,6-naphthyridine-6(2H)-sulfonamide] | 7.8 nM | 76.6 nM
COc1cc(-c2cc(C)ccc2Cl)c(F)cc1-n1c2c(ccc1=O)CN(S(=O)(=O)Nc1cccnn1)CC2 [Example 43, P-1-(2′-chloro-2-fluoro-5-methoxy-5′-methyl-4-biphenylyl)-2-oxo-N-3-pyridazinyl-1,5,7,8-tetrahydro-1,6-naphthyridine-6(2H)-sulfonamide] | 3.8 nM | 156 nM
COc1cc(-c2ccc(F)c(F)c2)c(Cl)cc1-n1c2c(ccc1=O)CN(S(=O)(=O)Nc1ccon1)CC2 [Example 51, P-1-(2-chloro-3′,4′-difluoro-5-methoxy-4-biphenylyl)-N-3-isoxazolyl-2-oxo-1,5,7,8-tetrahydro-1,6-naphthyridine-6(2H)-sulfonamide] | < 2 nM | 45.1 nM
COc1cc(-c2cc(OC)c(-n3c4c(ccc3=O)CN(S(=O)(=O)Nc3ccon3)CC4)cc2Cl)ccc1Cl [Example 52, P-1-(2,4′-dichloro-3′,5-dimethoxy-4-biphenylyl)-N-3-isoxazolyl-2-oxo-1,5,7,8-tetrahydro-1,6-naphthyridine-6(2H)-sulfonamide] | 2.8 nM | 22.9 nM

Second part, the compound after the results:

IC50 (human Nav1.7 [1]) | IC50 (human Nav1.7 [2]) | SMILES
> 10000 nM | > 30000 nM | COc1cc(-c2ccc(F)c(C)c2)c(F)cc1-n1c2c(ccc1=O)CN(S(=O)(=O)Nc1ccon1)CC2 (single isomer, unassigned) [Example 22-M, M-1-(2,4′-difluoro-5-methoxy-3′-methyl-4-biphenylyl)-N-3-isoxazolyl-2-oxo-1,5,7,8-tetrahydro-1,6-naphthyridine-6(2H)-sulfonamide]
> 10000 nM | > 30000 nM | COc1cc(-c2ccc(F)c(F)c2)c(F)cc1-n1c2c(ccc1=O)CN(S(=O)(=O)Nc1ncccn1)CC2 (single isomer, unassigned) [Example 28-M, M-2-oxo-N-2-pyrimidinyl-1-(2,3′,4′-trifluoro-5-methoxy-4-biphenylyl)-1,5,7,8-tetrahydro-1,6-naphthyridine-6(2H)-sulfonamide]
80.5 nM | 499 nM | COc1cc(-c2ccc(F)c(F)c2)c(F)cc1-n1c2c(ccc1=O)CN(S(=O)(=O)Nc1ncccn1)CC2 (single isomer, unassigned) [Example 28-P, P-2-oxo-N-2-pyrimidinyl-1-(2,3′,4′-trifluoro-5-methoxy-4-biphenylyl)-1,5,7,8-tetrahydro-1,6-naphthyridine-6(2H)-sulfonamide]
> 2500 nM | > 30000 nM | COc1cc(-c2ccc(F)c(C)c2)c(F)cc1-n1c2c(ccc1=O)CN(S(=O)(=O)Nc1ncccn1)CC2 (single isomer, unassigned) [Example 29-M, M-1-(2,4′-difluoro-5-methoxy-3′-methyl-4-biphenylyl)-2-oxo-N-2-pyrimidinyl-1,5,7,8-tetrahydro-1,6-naphthyridine-6(2H)-sulfonamide]
55.5 nM | 568 nM | COc1cc(-c2ccc(F)c(C)c2)c(F)cc1-n1c2c(ccc1=O)CN(S(=O)(=O)Nc1ncccn1)CC2 (single isomer, unassigned) [Example 29-P, P-1-(2,4′-difluoro-5-methoxy-3′-methyl-4-biphenylyl)-2-oxo-N-2-pyrimidinyl-1,5,7,8-tetrahydro-1,6-naphthyridine-6(2H)-sulfonamide]
3910 nM | 24900 nM | COc1cc(-c2ccc(Cl)c(C)c2)c(F)cc1-n1c2c(ccc1=O)CN(S(=O)(=O)Nc1ncccn1)CC2 (single isomer, unassigned) [Example 30-M, M-1-(4′-chloro-2-fluoro-5-methoxy-3′-methyl-4-biphenylyl)-2-oxo-N-2-pyrimidinyl-1,5,7,8-tetrahydro-1,6-naphthyridine-6(2H)-sulfonamide]
2730 nM | 5020 nM | COc1cc(-c2cc(F)cc(Cl)c2)c(F)cc1-n1c2c(ccc1=O)CN(S(=O)(=O)Nc1ncccn1)CC2 (single isomer, unassigned) [Example 31-M, M-1-(3′-chloro-2,5′-difluoro-5-methoxy-4-biphenylyl)-2-oxo-N-2-pyrimidinyl-1,5,7,8-tetrahydro-1,6-naphthyridine-6(2H)-sulfonamide]
36.9 nM | 205 nM | COc1cc(-c2cc(F)cc(Cl)c2)c(F)cc1-n1c2c(ccc1=O)CN(S(=O)(=O)Nc1ncccn1)CC2 (single isomer, unassigned) [Example 31-P, P-1-(3′-chloro-2,5′-difluoro-5-methoxy-4-biphenylyl)-2-oxo-N-2-pyrimidinyl-1,5,7,8-tetrahydro-1,6-naphthyridine-6(2H)-sulfonamide]
1000 nM | 20600 nM | COc1cc(-c2ccc(F)c(F)c2)c(F)cc1-n1c2c(ccc1=O)CN(S(=O)(=O)Nc1cccnn1)CC2 (single isomer, unassigned) [Example 32-M, M-2-oxo-N-3-pyridazinyl-1-(2,3′,4′-trifluoro-5-methoxy-4-biphenylyl)-1,5,7,8-tetrahydro-1,6-naphthyridine-6(2H)-sulfonamide]
662 nM | 3120 nM | COc1cc(-c2cc(F)cc(Cl)c2)c(F)cc1-n1c2c(ccc1=O)CN(S(=O)(=O)Nc1cccnn1)CC2 (single isomer, unassigned) [Example 38-M, M-1-(3′-chloro-2,5′-difluoro-5-methoxy-4-biphenylyl)-2-oxo-N-3-pyridazinyl-1,5,7,8-tetrahydro-1,6-naphthyridine-6(2H)-sulfonamide]
1.8 nM | 33 nM | COc1cc(-c2cc(F)cc(C(F)(F)F)c2)c(F)cc1-n1c2c(ccc1=O)CN(S(=O)(=O)Nc1cccnn1)CC2 [Example 41, P-1-(2,3′-difluoro-5-methoxy-5′-(trifluoromethyl)-4-biphenylyl)-2-oxo-N-3-pyridazinyl-1,5,7,8-tetrahydro-1,6-naphthyridine-6(2H)-sulfonamide]
